Values of other authors as cited in patent US20140271890A1, “CONTROLLED-RELEASE PHARMACEUTICAL COMPOSITION” (priority 2013, published 2014).

Settings: mean dose between 5 and 10 mg in a conventional formulation

For Cc1ccc(-c2nc3ccc(C)cn3c2CC(=O)N(C)C)cc1 [Zolpidem], the duration of action is given as “up to 6 hours”.
